Data: PMC9020998 (Oxidative Medicine and Cellular Longevity, 2022)
Several values for one entry are separate records, joined by “and”; a condition that tells them apart may be missing. Identical values can stand only once. Like-named read-outs stand apart in the source and are kept apart here.

How the values were obtained:
[1] = DPPH free radical scavenging assay; type: biochemical
Experimental: The 1,1-diphenyl-2-picrylhydrazyl free radicals of the compounds were performed by using the reported method. Different concentrations of the compounds were mixed with DPPH methanolic solution of 0.004%. After half an hour, the absorption was determined with a double-beam UV-visible spectrophotometer at 517 nm. The same standard (ascorbic acid) was used as in the ABTS assay. The experiments were repeated three times. The percent inhibitions and IC50 values of the compounds were calculated with the standard formula.

[2] = ABTS free radical scavenging assay; type: biochemical; conditions: for ABTS IC50: ABTS radical scavenging, absorbance at 734 nm
Experimental: The ABTS free radical scavenging antioxidant activity of the compounds was performed by using the previously reported methods. In this activity, the compounds scavenge ABTS^+ cations, and thus, a reduction in absorption is observed at 734 nm using a UV-visible spectrophotometer. Solutions of 7 mM ABTS and 2.45 mM of […] were prepared and were mixed. The mixture was stored at dark for about 16 h to get ABTS cations which appeared dark in color. The solution of ABTS cation was diluted with phosphate buffer (0.01 M having pH of 7.4); the absorbance value (0.70) was adjusted at 734 nm. To confirm the ABTS radicals' scavenging capacity, 300 μL solution of compound was mixed with 3.0 mL of ABTS. After one minute, the reduction in absorption was noted and was monitored for six minutes. The ascorbic acid was used as positive control in this activity. The experiments were repeated three times. The percent inhibitions and its IC50 values were measured as per the standard method.

[3] = target: T1, protein tyrosine phosphatase 1B (Homo sapiens, UniProt P18031); experiment: Protein tyrosine phosphatase 1B assay; type: biochemical
T1 sequence (P18031 1-435): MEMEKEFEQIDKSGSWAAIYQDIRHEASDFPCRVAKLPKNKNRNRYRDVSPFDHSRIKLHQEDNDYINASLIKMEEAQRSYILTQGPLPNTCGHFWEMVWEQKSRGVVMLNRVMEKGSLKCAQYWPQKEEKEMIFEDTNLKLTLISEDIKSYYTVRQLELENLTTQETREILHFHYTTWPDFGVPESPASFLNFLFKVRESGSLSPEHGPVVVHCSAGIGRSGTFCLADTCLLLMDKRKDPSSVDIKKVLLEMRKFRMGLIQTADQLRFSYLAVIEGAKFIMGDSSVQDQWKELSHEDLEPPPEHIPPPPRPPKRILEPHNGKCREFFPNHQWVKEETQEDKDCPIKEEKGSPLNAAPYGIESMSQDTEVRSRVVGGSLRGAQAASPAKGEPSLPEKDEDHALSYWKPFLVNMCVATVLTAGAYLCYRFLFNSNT
Experimental: In the PTP1B assay, 4-nitrophenylphosphate was used as substrate. The solution of dimethyl glutarate […] in buffer of pH 7 was prepared to be used in the assay. […] The solution was incubated at 37°C for 15 min. […] The experiments were performed three times. The percent inhibitions and their corresponding IC50 values were calculated as per the standard formula [46].

BChE = BChE (Homo sapiens, UniProt P06276); experiment: Anticholinesterase assay (BChE); type: biochemical
Chain of BChE (P06276 29-602, species assumed): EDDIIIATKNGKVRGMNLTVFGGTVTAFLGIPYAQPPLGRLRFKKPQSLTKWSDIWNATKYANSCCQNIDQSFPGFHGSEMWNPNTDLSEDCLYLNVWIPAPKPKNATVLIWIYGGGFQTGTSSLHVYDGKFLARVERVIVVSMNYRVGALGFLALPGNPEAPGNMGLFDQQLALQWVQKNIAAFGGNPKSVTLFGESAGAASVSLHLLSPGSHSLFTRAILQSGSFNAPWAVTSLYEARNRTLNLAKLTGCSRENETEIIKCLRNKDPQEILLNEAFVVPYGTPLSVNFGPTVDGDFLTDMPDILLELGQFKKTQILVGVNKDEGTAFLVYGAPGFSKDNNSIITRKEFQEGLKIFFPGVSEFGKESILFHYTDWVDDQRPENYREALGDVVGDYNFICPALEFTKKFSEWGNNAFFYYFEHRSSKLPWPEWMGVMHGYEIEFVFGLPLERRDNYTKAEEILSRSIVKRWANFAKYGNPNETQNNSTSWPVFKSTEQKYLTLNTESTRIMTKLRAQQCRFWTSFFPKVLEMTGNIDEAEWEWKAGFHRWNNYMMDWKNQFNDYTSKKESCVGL
Experimental: (§1) The two enzymes break down their respective thiocholine iodide to produce the ion 5-thio-2-nitrobenzoate. […] The enzyme dilutions were prepared in phosphate buffer having pH of 8. Parallelly, the acetyl and butyrylthiocholine iodide solutions (0.05 mM) and DTNB were also prepared in H2O (distilled water of our laboratory) and were stored at 8°C for 15 min. […] The experiments were performed three times. The percent inhibitions and their subsequent IC50 values were calculated as per the standard formula [43].

5-LOX = experiment: 5-Lipoxygenase assay (5-LOX); type: biochemical
Experimental: The lipoxygenase enzyme 10,000 unit/μL was used in the assay. The substrate used in this assay was linoleic acid. […] The combined mixture was incubated at 25°C for 5 min. Afterwards, linoleic acid was properly mixed with it and was kept for 5 min. […] The experiments were performed three times. The percent 5-LOX inhibitions and the IC50 values were calculated as per the standard formula [44].

COX-2 = target: T2, COX-2 (Homo sapiens, UniProt P35354); experiment: Anticyclooxygenase assay (COX-2); type: biochemical
T2 sequence (P35354 18-604): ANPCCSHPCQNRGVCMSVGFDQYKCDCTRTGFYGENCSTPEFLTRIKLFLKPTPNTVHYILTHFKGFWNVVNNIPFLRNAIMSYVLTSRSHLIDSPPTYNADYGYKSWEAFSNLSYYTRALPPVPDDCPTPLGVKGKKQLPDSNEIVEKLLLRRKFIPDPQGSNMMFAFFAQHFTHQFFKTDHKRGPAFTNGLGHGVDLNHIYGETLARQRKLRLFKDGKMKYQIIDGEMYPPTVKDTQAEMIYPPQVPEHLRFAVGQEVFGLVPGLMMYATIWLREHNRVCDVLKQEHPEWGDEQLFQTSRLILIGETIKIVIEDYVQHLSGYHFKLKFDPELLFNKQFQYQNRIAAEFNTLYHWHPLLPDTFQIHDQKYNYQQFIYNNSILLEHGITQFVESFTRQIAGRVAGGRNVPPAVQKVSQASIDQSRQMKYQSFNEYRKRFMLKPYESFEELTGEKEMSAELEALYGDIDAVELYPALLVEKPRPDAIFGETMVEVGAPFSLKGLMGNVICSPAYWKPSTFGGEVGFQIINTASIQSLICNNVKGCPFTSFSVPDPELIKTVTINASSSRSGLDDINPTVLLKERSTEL
Experimental: (§2) The COX-1 enzyme 10 μL and COX-2 300 units/mL were activated on ice for 5 min. The activation solution was accompanied by a cofactor of 50 μL containing glutathione, hematin, 1.0 mM, and TMPD in Tris-HCl buffer with pH of 8. […] The reaction was initiated when arachidonic acid 20 μL was added. The reaction was incubated for 5 min, and absorbance was measured at 570 nm as per the reported procedure. The experiments were repeated three times.

COX-1 = COX-1 (Homo sapiens, UniProt P23219); experiment: Anticyclooxygenase assay (COX-1); type: biochemical
Chain of COX-1 (P23219 24-599): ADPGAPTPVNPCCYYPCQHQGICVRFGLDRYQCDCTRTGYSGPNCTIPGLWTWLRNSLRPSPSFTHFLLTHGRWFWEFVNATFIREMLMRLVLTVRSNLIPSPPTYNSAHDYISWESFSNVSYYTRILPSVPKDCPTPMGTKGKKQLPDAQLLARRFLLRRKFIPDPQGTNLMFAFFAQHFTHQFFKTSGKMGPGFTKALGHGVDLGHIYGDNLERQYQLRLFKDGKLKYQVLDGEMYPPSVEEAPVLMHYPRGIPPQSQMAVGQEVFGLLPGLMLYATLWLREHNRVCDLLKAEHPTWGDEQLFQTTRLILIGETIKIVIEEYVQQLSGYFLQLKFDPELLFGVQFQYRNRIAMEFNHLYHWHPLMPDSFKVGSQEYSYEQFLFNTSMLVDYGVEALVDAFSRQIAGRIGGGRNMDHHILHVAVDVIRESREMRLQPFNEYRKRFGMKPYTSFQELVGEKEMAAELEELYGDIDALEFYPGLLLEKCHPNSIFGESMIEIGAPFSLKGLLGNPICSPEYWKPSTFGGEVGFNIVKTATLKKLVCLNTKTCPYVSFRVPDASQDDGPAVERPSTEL
Experimental: as §2

AChE = AChE (Homo sapiens, UniProt P22303); experiment: biochemical
Chain of AChE (P22303 32-614): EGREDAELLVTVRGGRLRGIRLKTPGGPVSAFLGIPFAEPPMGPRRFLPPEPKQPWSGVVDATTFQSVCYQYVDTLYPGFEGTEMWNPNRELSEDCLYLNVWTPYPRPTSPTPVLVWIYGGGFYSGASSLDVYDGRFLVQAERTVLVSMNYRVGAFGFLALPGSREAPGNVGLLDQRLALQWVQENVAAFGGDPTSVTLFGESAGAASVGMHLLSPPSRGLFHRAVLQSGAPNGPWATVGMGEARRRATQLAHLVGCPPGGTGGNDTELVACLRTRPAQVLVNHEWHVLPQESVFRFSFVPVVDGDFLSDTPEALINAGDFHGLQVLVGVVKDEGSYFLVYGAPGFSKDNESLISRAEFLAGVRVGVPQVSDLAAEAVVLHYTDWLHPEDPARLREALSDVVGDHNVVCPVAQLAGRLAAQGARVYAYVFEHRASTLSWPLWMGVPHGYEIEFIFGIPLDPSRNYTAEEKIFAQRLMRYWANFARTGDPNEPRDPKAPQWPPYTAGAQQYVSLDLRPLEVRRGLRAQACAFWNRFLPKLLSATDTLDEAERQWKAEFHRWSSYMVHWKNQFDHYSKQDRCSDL
Experimental: as §1

[4] = DPPH radical scavenging, absorbance at 517 nm
[5] = Tables 2 and 3 print no unit, text μg/mL, abstract μM
[6] = Table 2 prints no unit, text b63 μg/mL, abstract μM

## C=Cc1ccc(O)cc1 [Compound 3, 4-Vinylphenol]
[1]; [4]
  DPPH IC50: 10.27 µg/mL
[2]
  ABTS IC50: 12.60 µg/mL

## COc1cc(/C=C2\SC(=O)NC2=O)ccc1O [Compound 5B, (Z)-5-(4-Hydroxy-3-methoxybenzylidene)thiazolidine-2,4-dione]
[1]
  IC50: 1.94 µM
[1]; [5]
  DPPH IC50: 1.94 ± 1.20
[3]; read-out: protein tyrosine phosphatase 1B IC50
  IC50: 53.3 µM
[3]; unit inferred, text b66 μg/mL, abstract μM, read-out: PTP1B IC50 (converted)
  IC50: 212 µM

## COc1cc(/C=C2\CC(=O)N(c3ccc(O)cc3)C2=O)ccc1O [Compound 5A, (E)-3-(4-Hydroxy-3-methoxybenzylidene)-1-(4-hydroxyphenyl)pyrrolidine-2,5-dione]
BChE
  IC50: 15.1 µM
BChE; [6]
  IC50: 46.4 µM
5-LOX; Table 2 prints no unit, text b63 μg/mL, abstract and b89 μM
  5-LOX IC50: 0.71 ± 0.10
5-LOX; as printed in abstract and b89
  IC50: 0.71 µM
COX-2; COX-2 IC50, Table 2 prints no unit, text b63 μg/mL, abstract μM
  IC50: 3.32 µM
COX-2; COX-2 IC50, as printed in abstract
  IC50: 1.08 µM
COX-2; ratio of COX-1 and COX-2 IC50
  SI (COX-2 selectivity index): 12.9
[1]
  IC50: 1.05 µM
[1]; [5]
  DPPH IC50: 1.05 ± 0.51
COX-1; COX-1 IC50, Table 2 prints no unit, text b63 μg/mL, abstract μM
  IC50: 42.8 µM
COX-1; COX-1 IC50, as printed in abstract
  IC50: 13.9 µM
AChE
  IC50: 10.6 µM
AChE; [6]
  IC50: 32.6 µM
AChE; ratio of BChE IC50 to AChE IC50
  SI (selectivity index AChE/BChE): 1.42

## OCc1ccco1 [Compound 1, Furan-2-ylmethanol]
[1]; [4]
  DPPH IC50: 8.19 µg/mL
[2]
  ABTS IC50: 7.43 µg/mL

## COc1cc(C=O)ccc1O [Compound 5, 4-Hydroxy-3-methoxybenzaldehyde]
[1]; [4]
  DPPH IC50: 2.12 µg/mL
[2]
  ABTS IC50: 8.28 µg/mL

## CC1=C(O)C(=O)C(C)(O)O1 (centres unmarked) [Compound 2, 2,4-Dihydroxy-2,5-dimethylfuran-3(2H)-one]
[1]; [4]
  DPPH IC50: 1.61 µg/mL
[2]
  ABTS IC50: 3.005 µg/mL
[2]; at 31.25 μg/mL
  ABTS percent inhibition: 66.44
[2]; at 62.5 μg/mL
  ABTS percent inhibition: 71.47
[2]; at 125 μg/mL
  ABTS percent inhibition: 77.39
[2]; at 250 μg/mL
  ABTS percent inhibition: 83.34
[2]; at 500 μg/mL
  ABTS percent inhibition: 88.36

## COc1c(O)ccc(O)c1C [Compound 4, 2-Methoxy-3-methylbenzene-1,4-diol]
[1]; [4]
  DPPH IC50: 3.19 µg/mL
[2]
  ABTS IC50: 4.63 µg/mL

## COc1cc(CC(C)=O)ccc1O [Compound 6, 1-(4-Hydroxy-3-methoxyphenyl)propan-2-one]
[1]; [4]
  DPPH IC50: 9.99 µg/mL
[2]
  ABTS IC50: 9.55 µg/mL

## O=C1O[C@H]([C@@H](O)CO)C(O)=C1O [Ascorbic acid, reference compound]
[1]; [4]
  DPPH IC50: 0.840 µg/mL
[1]; [5]
  DPPH IC50: 0.840 ± 0.14 and 0.840 ± 0.04
[2]
  ABTS IC50: 0.211 µg/mL
